# In patent US20260199270A1, “METHODS FOR TREATING NEURODEGENERATIVE DISORDERS WITH TRAMIPROSATE” (Alzheon, Inc., priority 2022, published 2026):
# Entries after “also recorded” stand apart in the source; their conditions may differ.
# How the values were obtained:
# Format in all cases: in vivo, human
# [1] = Phase 2 trial of ALZ-801: HV atrophy vs matched external control group from ADNI-1; settings: compared to matched external control group from the ADNI-1 observational study; 265 mg twice daily
# Experimental: (§1) Evaluation of disease modifying effects from phase 2 trial of ALZ-801 (valiltramiprosate) in subjects with early Alzheimer's disease were conducted. The study enrolled 84 patients, with early AD, who carry the APOE4/4 or APOE3/4 genotype and have an MMSE score ranging from 22 to 30 (CDR-G 0.5 or 1). Each patient received 265 mg ALZ-801 twice daily. The average MMSE score of the subjects was 26 (mean age 69 years, 52% female). Subjects were either amyloid PET positive or A+/T+ on CSF assays. CSF criteria were: Ratio of Aβ42/40×10<0.61, and p-tau181>61 pg/ml. CSF was evaluated at 52 weeks, and plasma biomarkers at every visit.
# (§2) These effects were associated with benefits on a composite cognitive outcome that tests memory and learning. […] The HV preservation effects correlate with cognitive benefits (Spearman's coefficient r=0.27, p=0.02).
# plasma p-tau181 = experiment: Phase 2 trial of ALZ-801 in early Alzheimer's disease: plasma p-tau181; settings: 52 weeks; 265 mg ALZ-801 orally twice daily; APOE4+ early AD subjects
# Experimental: FIG. 3 illustrates the effect on plasma p-tau181 (change from baseline) following a 52 week treatment with 265 mg ALZ-801 administered orally twice daily to subjects who are APOE4+ and have early AD.
# as §1, §2
# plasma Aβ40 = experiment: Phase 2 trial of ALZ-801 in early Alzheimer's disease: plasma Aβ40; settings: 52 weeks; 265 mg ALZ-801 orally twice daily; APOE4+ early AD subjects
# Experimental: FIG. 1 illustrates the effect on plasma Abeta40 (change from baseline) following a 52 week treatment with 265 mg ALZ-801 administered orally twice daily to subjects who are APOE4+ and have early AD.
# as §1, §2
# [2] = Phase 2 trial of ALZ-801: safety, ARIA and macrohemorrhages; settings: 1 year of ALZ-801 treatment
# Experimental: This is further supported by the early significant decrease in the neuronal injury marker plasma p-tau, which indicates decreased amyloid-induced neuronal stress. See e.g., FIG. 3.
# as §1, with “visit. […]” for “visit.”
# plasma Aβ42 = experiment: Phase 2 trial of ALZ-801 in early Alzheimer's disease: plasma Aβ42; settings: 52 weeks; 265 mg ALZ-801 orally twice daily; APOE4+ early AD subjects
# Experimental: FIG. 2 illustrates the effect on plasma Abeta42 (change from baseline) following a 52 week treatment with 265 mg ALZ-801 administered orally twice daily to subjects who are APOE4+ and have early AD.
# as §1, §2
compound,measurement,setting,value
"CC(C)[C@H](N)C(=O)NCCCS(=O)(=O)O [ALZ-801, valyl-3-amino-1-propanesulfonic acid]",reduction of HV atrophy,[1],19-23%
same,reduction of plasma p-tau compared to baseline,plasma p-tau181,41%
same,reduction of plasma Aβ40 compared to baseline,plasma Aβ40,~ 5%
same,events of vasogenic edema / amyloid-related imaging abnormalities (ARIA-E; b52: ARIA-E or ARIA-H),[2],no events
same,macrohemorrhages (bleeds larger than 1 cm in diameter),[2],no events; also recorded: no macro-hemorrhages
same,reduction of plasma Aβ42 compared to baseline,plasma Aβ42,~ 5%
